Experimental data: article PMC6628648, “Enabling microbial syringol conversion through structure-guided protein engineering” (Proceedings of the National Academy of Sciences of the …, 2019)

Tests used:
WT GcoA = target: T1, WT GcoA (Amycolatopsis sp., UniProt P0DPQ7); assay: biochemical; assay type: binding, Amycolatopsis sp. ATCC 39116; settings: for %Fe(III) spin state conversion: WT GcoA, final high-spin (388 nm) divided by starting low-spin (417 nm)
T1 construct: GST (N, cleaved yes); made in house; host or cells: E. coli Rosetta 2 (DE3)

GcoA-F169A = GcoA-F169A (Amycolatopsis sp., UniProt P0DPQ7, F169A); assay: Discontinuous HPLC specific activity (aromatic substrate disappearance); assay type: biochemical, Amycolatopsis sp. ATCC 39116; parameters: GST (N, cleaved yes); made in house; host or cells: E. coli Rosetta 2 (DE3); settings: 300 μM substrate, 300 μM NADH, 0.2 μM F169A/GcoB
Experimental: HPLC was used to verify the O-demethylated product of GcoA-F169A GcoA/GcoB with guaiacol, syringol, or 3MC. In addition, discontinuous HPLC was used to determine the specific activity of aromatic product disappearance. Details are provided in SI Appendix. […]
vi = Vmax[S]/(KM + [S]) (4)
Determination of substrate dissociation constants (KD) with F169A. 0-60 µM of guaiacol, syringol, or 3MC in 0.5 or 1 µM aliquots, were titrated into a cuvette containing 3 µM F169A GcoA in 25 mM HEPES, 50 mM NaCl, pH 7.5. The spectrum after each substrate addition was recorded, beginning with no substrate bound. The solution reached equilibrium before the next addition. A difference spectrum was made to illustrate the shift from a low-spin aquo-heme complex to the high-spin substrate-bound complex (spectral […]
shift from 417 nm to 388 nm). […] The absorbance […]
at 388 nm (Abs388-417 nm) was plotted as a function of [substrate], yielding a quadratic curve that was fit to equation (5) to determine […]
Formaldehyde determination. A colorimetric assay using tryptophan can be used to quantify the amount of formaldehyde produced in F169 GcoA/B reactions with guaiacol, syringol, or 3MC. […] 200 μM NADH was added and the background rate recorded. 100 (guaiacol, syringol, or 3MC) or 200 (syringol) μM of substrate was then added and the reaction monitored until there was no more change, due to either substrate, NADH or O2 depletion, whichever occurred first. […] After cooling, the absorbance was read at 575 nm and the [formaldehyde] calculated by using ε575 nm = 4.2 mM-1 cm-1, obtained with formaldehyde as a standard (1). […]
HPLC for product identification and specific activity measurement. […] Integrated intensities vs [standards] were plotted and the resulting standard curves used to quantify the reactants and products.
For specific activity determination, 300 μM guaiacol, syringol, or 3MC were added from 0.1 M DMSO stocks to air saturated buffer (25 mM HEPES, 50 mM NaCl, pH 7.5), with a final volume of 1 mL. The [analyte] was measured via the above HPLC method. […]

GcoA variant F169H = target: T2, GcoA variant F169H (Amycolatopsis sp., UniProt P0DPQ7, F169H); assay: NADH consumption assay (specific activity) with GcoB; assay type: biochemical, Amycolatopsis sp. ATCC 39116; settings: saturating (200 µM) substrate, pH 7.5, 25°C
T2 construct: GST (N, cleaved yes); made in house; host or cells: E. coli Rosetta 2 (DE3)
T2 sequence (P0DPQ7 whole entry F169H): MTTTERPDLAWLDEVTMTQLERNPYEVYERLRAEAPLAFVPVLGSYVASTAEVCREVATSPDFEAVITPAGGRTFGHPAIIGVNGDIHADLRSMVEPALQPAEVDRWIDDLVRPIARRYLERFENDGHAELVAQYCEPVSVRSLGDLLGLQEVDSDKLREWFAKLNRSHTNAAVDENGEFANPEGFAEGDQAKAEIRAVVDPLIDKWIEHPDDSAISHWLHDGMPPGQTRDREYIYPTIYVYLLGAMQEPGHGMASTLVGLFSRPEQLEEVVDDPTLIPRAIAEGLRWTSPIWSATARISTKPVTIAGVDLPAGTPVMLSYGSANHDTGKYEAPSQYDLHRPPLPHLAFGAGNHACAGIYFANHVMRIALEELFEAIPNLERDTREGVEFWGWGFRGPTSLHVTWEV

Sequence of GcoA-F169A (P0DPQ7 whole entry F169A): as the sequence (P0DPQ7 whole entry F169H) above, with H169A counted along it
T1 sequence (P0DPQ7 whole entry): as the sequence (P0DPQ7 whole entry F169H) above, with H169F counted along it

| Structure (SMILES) | %Fe(III) spin state conversion (WT GcoA) | aromatic substrate disappearance (specific activity) (GcoA-F169A) | Specific activity (GcoA variant F169H) | Kd (WT GcoA) |
| --- | --- | --- | --- | --- |
| COc1cccc(O)c1O [3MC, 3-methoxycatechol] | 62 ± 0.01% | 2.6 ± 0.3 μM s-1 μmol F169A-1 | 4.3 ± 0.4 μmol sec-1 μmol-1 GcoA |  |
| COc1ccccc1O [guaiacol, 2-methoxyphenol] | 87 ± 1% | 5.6 ± 0.3 μM s-1 μmol F169A-1 | 7.9 ± 3 μmol sec-1 μmol-1 GcoA | 6.5 ± 2 nM |
| COc1cccc(OC)c1O [syringol, 2,6-dimethoxyphenol] | 56 ± 2% | 4.1 ± 0.3 μM s-1 μmol F169A-1 | 3.9 ± 0.2 μmol sec-1 μmol-1 GcoA |  |
